Reference: patent US11470846B2, “Herbicidal pyridino-/pyrimidino-thiazoles” (SYNGENTA PARTICIPATIONS AG, priority 2014, dated 2022)

Key:
Format in all cases: in vivo
[1] = tested on: Triticum aestivium (TRZAW); experiment: Post-emergence herbicidal activity; details: post-emergence application, 1000 g/Ha, evaluated after 13 days, scale 0-5
Description: (§1) B2 Post-Emergence Herbicidal Activity
(§2) Seeds of a variety of test species were sown in standard soil in pots: Triticum aestivium (TRZAW), Oryza sativa (ORYSA), Avena fatua (AVEFA), Alopecurus myosuroides (ALOMY), Echinochloa crus-galli (ECHCG), Lolium perenne (LOLPE), Zea Mays (ZEAMX), Abutilon theophrasti (ABUTH), Amaranthus retroflexus (AMARE) and Setaria faberi (SETFA). After 8 days cultivation (post-emergence) under controlled conditions in a glasshouse (at 24/16° C., day/night; 14 hours light; 65% humidity), the plants were sprayed with an aqueous spray solution derived from the formulation of the technical active ingredient in acetone/water (50:50) solution containing 0.5% Tween 20 (polyoxyethelyene sorbitan monolaurate, CAS RN 9005-64-5). The test plants were then grown in a glasshouse under controlled conditions (at 24/16° C., day/night; 14 hours light; 65% humidity) and watered twice daily. After 13 days, the test was evaluated (5=total damage to plant; 0=no damage to plant).

Oryza sativa (ORYSA) [2] = experiment: Post-emergence herbicidal activity; details: post-emergence application, 1000 g/Ha, evaluated after 13 days, scale 0-5
Description: as §1, §2

Avena fatua (AVEFA) [3] = experiment: Post-emergence herbicidal activity; details: post-emergence application, 1000 g/Ha, evaluated after 13 days, scale 0-5
Description: as §1, §2

[4] = tested on: Echinochloa crus-galli (ECHCG); experiment: Post-emergence herbicidal activity; details: post-emergence application, 1000 g/Ha, evaluated after 13 days, scale 0-5; Table 7
Description: as §1, §2

Lolium perenne (LOLPE) [5] = experiment: Post-emergence herbicidal activity; details: post-emergence application, 1000 g/Ha, evaluated after 13 days, scale 0-5; Table 7
Description: as §1, §2

[6] = tested on: Alopecurus myosuroides (ALOMY); experiment: Post-emergence herbicidal activity; details: post-emergence application, 1000 g/Ha, evaluated after 13 days, scale 0-5
Description: as §1, §2

[7] = tested on: Triticum aestivium (TRZAW); experiment: Pre-emergence herbicidal activity; details: pre-emergence application, 1000 g/Ha, evaluated after 13 days, scale 0-5
Description: (§3) B1 Pre-Emergence Herbicidal Activity
as §2, with “After” for “After 8 days”, “for one day (pre-emergence)” for “(post-emergence)”

Oryza sativa (ORYSA) [8] = experiment: Pre-emergence herbicidal activity; details: pre-emergence application, 1000 g/Ha, evaluated after 13 days, scale 0-5
Description: as §3
as §2, with “After” for “After 8 days”, “for one day (pre-emergence)” for “(post-emergence)”

Avena fatua (AVEFA) [9] = experiment: Pre-emergence herbicidal activity; details: pre-emergence application, 1000 g/Ha, evaluated after 13 days, scale 0-5
Description: as §3
as §2, with “After” for “After 8 days”, “for one day (pre-emergence)” for “(post-emergence)”

[10] = tested on: Echinochloa crus-galli (ECHCG); experiment: Pre-emergence herbicidal activity; details: pre-emergence application, 1000 g/Ha, evaluated after 13 days, scale 0-5; Table 5
Description: as §3
as §2, with “After” for “After 8 days”, “for one day (pre-emergence)” for “(post-emergence)”

Lolium perenne (LOLPE) [11] = experiment: Pre-emergence herbicidal activity; details: pre-emergence application, 1000 g/Ha, evaluated after 13 days, scale 0-5; Table 5
Description: as §3
as §2, with “After” for “After 8 days”, “for one day (pre-emergence)” for “(post-emergence)”

[12] = tested on: Alopecurus myosuroides (ALOMY); experiment: Pre-emergence herbicidal activity; details: pre-emergence application, 1000 g/Ha, evaluated after 13 days, scale 0-5
Description: as §3
as §2, with “After” for “After 8 days”, “for one day (pre-emergence)” for “(post-emergence)”

Row | SMILES | Control of weed species, TRZAW (damage score) [1] | Control of weed species, ORYSA (damage score) (Oryza sativa (ORYSA) [2]) | Control of weed species, AVEFA (damage score) (Avena fatua (AVEFA) [3]) | Control of weed species, ECHCG (damage score) [4] | Control of weed species, LOLPE (damage score) (Lolium perenne (LOLPE) [5]) | Control of weed species, ALOMY (damage score) [6] | Control of weed species, TRZAW (damage score) [7] | Control of weed species, ORYSA (damage score) (Oryza sativa (ORYSA) [8]) | Control of weed species, AVEFA (damage score) (Avena fatua (AVEFA) [9]) | Control of weed species, ECHCG (damage score) [10] | Control of weed species, LOLPE (damage score) (Lolium perenne (LOLPE) [11]) | Control of weed species, ALOMY (damage score) [12]
1 | CN(C(=O)OC(C)(C)C)c1sc(-c2cncc(F)c2)nc1C(F)(F)F [Compound A24] | 1 | 2 | 4 | 5 | 4 | 0 | 1 | 0 | 4 | 4 | 3 | 2
2 | CN(C(=O)OC(C)(C)C)c1sc(-c2cccnc2)nc1C(F)(F)F [Compound A25] | 2 | 1 | 4 | 5 | 4 | 1 | 0 | 1 | 4 | 4 | 3 | 1
3 | CN(C(=O)OC(C)(C)C)c1sc(-c2cncnc2)nc1C(F)(F)F [Compound A26] | 1 | 2 | 5 | 5 | 4 | 0 | 0 | 1 | 4 | 4 | 3 | 2
4 | CN(C(=O)OC(C)(C)C)c1sc(-c2cncc(Cl)c2)nc1C(F)(F)F [Compound A27] | 2 | 1 | 4 | 5 | 3 | 1 | 0 | 0 | 2 | 2 | 2 | 0
5 | COc1cncc(-c2nc(C(F)(F)F)c(N(C)C(=O)OC(C)(C)C)s2)c1 [Compound A28, tert-butyl N-[2-(5-methoxy-3-pyridyl)-4-(trifluoromethyl)thiazol-5-yl]-N-methyl-carbamate] | 1 | 1 | 2 | 4 | 3 | 1 | 0 | 0 | 1 | 3 | 2 | 0
6 | CN(C(=O)OC(C)(C)C)c1sc(-c2cccnc2)nc1Cl [Compound A29] | 1 | 1 | 4 | 5 | 4 | 1 | 3 | 2 | 2 | 3 | 2 | 1
7 | CN(C(=O)OC(C)(C)C)c1sc(-c2cccnc2)nc1Br [Compound A30, tert-butyl N-[4-bromo-2-(3-pyridyl)thiazol-5-yl]-N-methyl-carbamate] | 2 | 1 | 4 | 5 | 4 | 1 | 0 | 1 | 3 | 4 | 2 | 1
8 | CN(C(=O)OC(C)(C)C)c1sc(-c2cccnc2)nc1I [Compound A31, tert-butyl N-[4-iodo-2-(3-pyridyl)thiazol-5-yl]-N-methyl-carbamate] | 1 | 1 | 5 | 4 | 3 | 1 | 1 | 1 | 1 | 3 | 2 | 1
9 | CN(C(=O)OC(C)(C)C)c1sc(-c2cccnc2)nc1F [Compound A32, tert-butyl N-[4-fluoro-2-(3-pyridyl)thiazol-5-yl]-N-methyl-carbamate] | 0 | 1 | 3 | 3 | 2 | 1 | 0 | 2 | 1 | 2 | 1 | 0
10 | Cc1nc(-c2cncc(F)c2)sc1N1CCOC1=O [Compound A38, 3-[2-(5-fluoro-3-pyridyl)-4-methyl-thiazol-5-yl]oxazolidin-2-one] | 1 | 0 | 4 | 5 | 3 | 1 | 0 | 3 | 1 | 5 | 2 | 1
11 | Cc1nc(-c2cccnc2)sc1N(C)C(=O)NOC(C)(C)C [Compound A45, 3-tert-butoxy-1-methyl-1-(4-methyl-2-(3-pyridyl)thiazol-5-yl)urea] | 2 | 2 | 5 | 4 | 4 | 1 | 1 | 2 | 3 | 3 | 2 | 2
12 | CN(C(=O)OC(C)(C)C)c1sc(-c2cncc(F)c2)nc1Br [Compound A51] | 0 | 0 | 4 | 4 | 2 | 0 | 0 | 0 | 2 | 1 | 3 | 0
